Columns and labels:
[1] = system: Barrett's stem cells (BE stem cells, Krt7+); experiment: High throughput chemical screening and dose response on GFP-labeled stem cells; assay type: cell-based, human
[2] = system: Barrett's stem cells and esophageal squamous stem cells xenograft; experiment: Mouse xenograft of co-injected esophageal squamous and GFP labeled Barrett's stem cells; assay type: in vivo, mice
Text: The effect of these chemicals on BE in a xenograft model was further examined. The esophageal squamous stem cells and GFP labeled Barrett's stem cells were mixed and co-injected into the immunodeficient mice. […] Two weeks following the treatment, the xenografts were collected and examined through histology analysis and clonogenic analysis.

[3] = system: Barrett's, dysplasia or EAC stem cells; experiment: Co-culture of esophageal stem cells with Barrett's, dysplasia or EAC stem cells; assay type: cell-based, human; conditions: together with 1 μM Ponatinib
Protocol: FIG. 6. Patient-matched BE, dysplasia and cancer stem cells (Krt7+, Green) were mixed with Krt5+ (red) ESO cells and co-cultured for five days and then treated with seven selected drugs together with 1 μM Ponatinib.
BE has been known to be the precursor of the dysplastic and cancerous lesions of EAC. […] Moreover, PCA analysis of Barrett's stem cells derived from 12 patients together with dysplasia, cancer and Esophageal squamous stem cells confirmed that the stem cells of dysplasia and cancer shared very similar gene expression with Barrett's stem cells (FIGS. 4A & B). […] The effects of the eight drug hits in combination with Ponatinib were tested in the cell culture of co-seeding esophageal stem cells and Barrett's, dysplasia or EAC stem cells. […] Given these three entities always co-exist in patients with EAC, our strategies of eradicating all of them could help to eliminate the chance of recurrence of EAC patients drastically.

[4] = system: dysplasia and cancer stem cells; experiment: Mice xenografted with dysplasia and cancer stem cells; assay type: in vivo; conditions: with Ponatinib
Text: FIG. 5C. Schematic of in vivo validation of drug combinations in mice xenografted with dysplasia and cancer stem cells. Following the treatment, the xenografts were processed for histological analysis or clonogenic assays to detect the existence of stem cells.

JMJD2A (KDM4A) = molecular target: T1, JMJD2A (KDM4A) (Homo sapiens, UniProt O75164); conditions: demethylase activity in vitro; cited from earlier work
T1 sequence (O75164 1-1064): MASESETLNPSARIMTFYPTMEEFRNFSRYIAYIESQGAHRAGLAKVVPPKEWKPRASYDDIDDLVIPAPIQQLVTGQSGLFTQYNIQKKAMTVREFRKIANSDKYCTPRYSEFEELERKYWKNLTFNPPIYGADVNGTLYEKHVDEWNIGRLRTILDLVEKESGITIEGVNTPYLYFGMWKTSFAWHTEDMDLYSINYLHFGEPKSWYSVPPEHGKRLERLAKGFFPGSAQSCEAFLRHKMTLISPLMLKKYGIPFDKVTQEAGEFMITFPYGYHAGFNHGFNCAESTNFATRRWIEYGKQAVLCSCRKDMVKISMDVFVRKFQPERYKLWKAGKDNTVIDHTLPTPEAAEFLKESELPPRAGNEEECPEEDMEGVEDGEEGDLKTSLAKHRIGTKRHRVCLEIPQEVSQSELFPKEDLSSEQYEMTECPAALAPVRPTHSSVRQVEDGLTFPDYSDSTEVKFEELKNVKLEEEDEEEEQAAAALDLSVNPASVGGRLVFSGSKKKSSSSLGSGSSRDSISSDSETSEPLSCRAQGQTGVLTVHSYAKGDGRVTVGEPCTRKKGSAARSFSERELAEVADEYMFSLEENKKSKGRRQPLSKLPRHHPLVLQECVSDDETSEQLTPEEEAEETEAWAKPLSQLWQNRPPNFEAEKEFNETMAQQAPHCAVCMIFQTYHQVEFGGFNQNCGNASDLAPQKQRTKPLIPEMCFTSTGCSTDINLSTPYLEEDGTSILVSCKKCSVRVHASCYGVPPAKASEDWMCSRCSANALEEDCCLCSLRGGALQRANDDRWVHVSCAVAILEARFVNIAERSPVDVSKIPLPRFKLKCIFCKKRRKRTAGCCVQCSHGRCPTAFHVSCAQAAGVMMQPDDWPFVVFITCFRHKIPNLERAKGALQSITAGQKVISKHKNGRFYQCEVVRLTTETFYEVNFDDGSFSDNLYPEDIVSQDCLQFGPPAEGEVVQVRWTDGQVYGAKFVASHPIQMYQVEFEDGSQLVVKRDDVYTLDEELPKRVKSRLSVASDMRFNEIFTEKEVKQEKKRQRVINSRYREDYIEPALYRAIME

JMJD2B (KDM4B) = molecular target: T2, JMJD2B (KDM4B) (Homo sapiens, UniProt O94953); conditions: demethylase activity in vitro; cited from earlier work
T2 sequence (O94953 1-1096): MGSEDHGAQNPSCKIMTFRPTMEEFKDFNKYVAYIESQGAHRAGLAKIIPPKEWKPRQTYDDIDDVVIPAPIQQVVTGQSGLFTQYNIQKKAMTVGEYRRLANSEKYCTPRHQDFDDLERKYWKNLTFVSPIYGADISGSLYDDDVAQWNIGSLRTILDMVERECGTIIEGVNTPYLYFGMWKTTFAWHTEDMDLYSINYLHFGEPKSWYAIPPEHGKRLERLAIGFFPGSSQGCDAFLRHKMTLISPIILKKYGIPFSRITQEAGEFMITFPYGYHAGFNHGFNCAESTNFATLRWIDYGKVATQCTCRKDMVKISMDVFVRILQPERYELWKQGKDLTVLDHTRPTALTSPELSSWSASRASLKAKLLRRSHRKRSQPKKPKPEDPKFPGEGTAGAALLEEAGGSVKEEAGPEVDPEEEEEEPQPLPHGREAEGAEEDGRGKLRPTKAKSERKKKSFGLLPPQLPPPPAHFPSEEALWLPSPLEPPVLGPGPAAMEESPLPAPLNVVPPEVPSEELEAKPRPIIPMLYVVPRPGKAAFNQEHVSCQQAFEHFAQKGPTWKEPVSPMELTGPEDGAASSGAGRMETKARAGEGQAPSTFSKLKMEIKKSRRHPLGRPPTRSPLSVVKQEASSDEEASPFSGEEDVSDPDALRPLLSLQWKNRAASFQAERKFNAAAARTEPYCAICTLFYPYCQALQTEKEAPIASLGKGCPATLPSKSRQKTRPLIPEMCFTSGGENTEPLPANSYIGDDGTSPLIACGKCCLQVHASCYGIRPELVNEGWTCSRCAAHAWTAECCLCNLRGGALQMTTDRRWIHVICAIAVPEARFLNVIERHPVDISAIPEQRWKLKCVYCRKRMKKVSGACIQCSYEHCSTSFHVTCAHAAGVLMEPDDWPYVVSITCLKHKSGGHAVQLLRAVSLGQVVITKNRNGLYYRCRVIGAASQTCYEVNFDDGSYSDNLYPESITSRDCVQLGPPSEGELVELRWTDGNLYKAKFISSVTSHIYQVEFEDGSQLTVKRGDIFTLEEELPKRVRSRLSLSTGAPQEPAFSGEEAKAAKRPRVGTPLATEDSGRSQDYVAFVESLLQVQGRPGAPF

Clc1ccc(N/N=C(\c2ccccc2)c2ccccn2)nc1 [JIB04]
differential of dose-response curves, BE stem cells versus normal esophageal stem cells ([1]; in the background of a fixed concentration of Ponatinib): ~1,000 fold | lethality towards Barrett's stem cells ([1]; screened in the background of 1 μM Ponatinib): displayed the lethality | BE stem cells in treated structures (histological analysis) ([2]; NSG mice, with Ponatinib): not detected | Krt5+ ESO structures in treated samples ([2]; NSG mice, with Ponatinib): visibly more robust | clonogenic Barrett's stem cells from xenografts ([2]; combination with Ponatinib, clonogenic analysis): lack of clonogenic Barrett's stem cells | Barrett's structures in xenografts (histology) ([2]; combination with Ponatinib, intraperitoneally, two weeks following the treatment): total loss | growth of BE, dysplasia and cancer stem cells in co-culture with ESO cells [3]: most effective | Dysplastic structures (Krt7+/Ki67+) in xenografts [4]: diminished | eradication of precancerous, dysplastic and cancerous stem cells in mouse xenograft models [4]: eradicate | stem cells cloned from treated dysplastic structures (rhodamine staining) [4]: not cloned | IC50 (JMJD2A (KDM4A)): ~440 nM | IC50 (JMJD2B (KDM4B)): ~440 nM

— patent publication US20220202792A1, “METHODS AND COMPOSITIONS FOR TREATING CHRONIC INFLAMMATORY INJURY, METAPLASIA, DYSPLASIA AND CANCERS OF EPITHELIAL TISSUES” (University of Houston System, priority 2019, published 2022)
